Results from article PMC9848256 (Journal of Enzyme Inhibition and Medicinal Chemistry, 2023).

Test: in vivo
Conditions: male, SD, rat, iv, 1 mg/kg
Procedure: The preliminary pharmacokinetic study was conducted in male SD rats. Two groups with three mice each were set by random. […] The liquid chromatography tandem mass spectrometry (LC-MS/MS) method was pre-built. The system consisted of LC-20AD High Performance Liquid Chromatography (Shimazu, Japan) with Venusil C18 Plus column (2.1*50 mm, 5.0 μm, Agela, USA) and API 4000 mass spectrometry (AB, USA). […] In the LC method, mobile phase A was distilled water and mobile phase B was acetonitrile. The rinse port wash solution was methanol. The flow rate was 0.700 ml/min and the initial back pressure was 8.9 Mpa. […] The subsequent calculation was under a non-compartmental model statistical moment method with WinNonlin 7.0 software (USA).
Two modes of administration were applied. One was the intragastric injection (i.g., or “PO” for “per os”) at a dosage (D) of 3.0 mg/kg, while the other was the intravenous injection (i.v., or “IV”) at a dosage of 1.0 mg/kg.

An AUC(0-inf) of 184 ± 74.4 ng·h/mL, an AUC(0-t) of 159 ± 65 ng·h/mL and a Cmax of 284 ± 270 ng/mL were found for `CCCCS(=O)(=O)Oc1ccc(/C=C/C(=O)Nc2cccc(Br)c2)cc1` [Spartinin C10, (E)-4–(3-((3-bromophenyl)amino)-3-oxoprop-1-en-1-yl)phenylbutane-1-sulphonate] in this work. The Tmax was 5 min and the half-life was 32.3 ± 13.7 min.
